Source: PubChem BioAssay (NCI)
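Dose response: 5 concentrations. Exposure: 48 h. Format: 96-well plates. Endpoint: linear interpolation; highest concentration if not reached. GI50 is the concentration that inhibits growth by half. TGI: concentration producing complete growth inhibition.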

Experiments:
Test in all cases: NCI tumour cell line growth inhibition, 48 h
A549 NSCLC = test system: A549 NSCLC
CAKI-1 renal = test system: CAKI-1 renal
DU-145 prostate = test system: DU-145 prostate
HL-60(TB) leukemia = test system: HL-60(TB) leukemia
OVCAR-5 ovarian = test system: OVCAR-5 ovarian
OVCAR-8 ovarian = test system: OVCAR-8 ovarian
SK-MEL-2 melanoma = test system: SK-MEL-2 melanoma
T-47D breast = test system: T-47D breast
UACC-62 melanoma = test system: UACC-62 melanoma
MOLT-4 leukemia = test system: MOLT-4 leukemia

Row | SMILES | TGI (A549 NSCLC) [µM] | TGI (CAKI-1 renal) [µM] | TGI (DU-145 prostate) [µM] | TGI (HL-60(TB) leukemia) [µM] | TGI (OVCAR-5 ovarian) [µM] | TGI (OVCAR-8 ovarian) [µM] | TGI (SK-MEL-2 melanoma) [µM] | TGI (T-47D breast) [µM] | TGI (UACC-62 melanoma) [µM] | GI50 (A549 NSCLC) [µM] | GI50 (CAKI-1 renal) [µM] | GI50 (DU-145 prostate) [µM] | GI50 (HL-60(TB) leukemia) [µM] | GI50 (MOLT-4 leukemia) [µM] | TGI (MOLT-4 leukemia) [µM] | GI50 (OVCAR-5 ovarian) [µM] | GI50 (OVCAR-8 ovarian) [µM] | GI50 (T-47D breast) [µM] | GI50 (UACC-62 melanoma) [µM] | GI50 (SK-MEL-2 melanoma) [µM]
1 | O=NNc1ccc(-c2ccccc2)cn1 | > 92.3 | 43.8 | 9.78 | 51.9 | > 77.4 | > 100 | 52 | > 77.9 | 31.3 | – | – | – | – | – | – | – | – | – | – | –
2 | OCc1c(-c2cccs2)oc(-c2cccs2)c1CO | > 100 | 94.9 | > 100 | 70 | > 100 | > 100 | – | > 100 | > 100 | 54.9 | 38.2 | 67.9 | 21.1 | 27.9 | > 100 | 69.2 | 50.7 | 17.3 | 35.3 | –
3 | COC1CCCc2c(OC(C)=O)ccc(OC(C)=O)c21 (configuration not stated) | > 100 | > 100 | – | > 100 | > 100 | – | > 100 | – | > 100 | – | – | – | – | – | > 100 | – | – | – | – | –
4 | CN(C)CCNC(=O)c1ccc2c(c1)oc1cc3ccccc3c(=O)n12 | 27.5 | 25.4 | – | 87.9 | – | 42.5 | 50.5 | – | 33.8 | 12.3 | 10.8 | – | 23.8 | 97.7 | > 100 | – | 19.4 | – | 17.4 | 28.7
5 | COc1ccc(CCN2CCCn3c2nc2ccccc2c3=O)cc1 | > 100 | > 100 | > 64.8 | 0.982 | > 100 | > 100 | – | – | > 100 | 0.087 | 0.252 | 0.211 | 0.038 | 0.0779 | > 100 | 0.95 | 0.423 | – | 0.185 | –
6 | CNC(=O)[C@H](Cc1c[nH]c2ccccc12)NC(=O)[C@@H](CC(=O)NO)CC(C)C | > 25 | > 25 | > 25 | – | > 25 | > 25 | > 25 | > 25 | > 25 | > 25 | > 25 | > 25 | – | > 25 | > 25 | > 25 | > 25 | > 25 | > 25 | > 25
7 | O=C(Nc1cc(Cl)c(I)c(Cl)c1)C(F)(F)F | – | 56.5 | > 100 | 58.3 | 83 | 56.8 | – | 97.6 | 48.9 | – | – | – | – | – | 82.7 | – | – | – | – | –
8 | COc1ccc(-c2cc(=O)c3c(O)c(O)c(OC)cc3o2)cc1O | > 100 | > 100 | – | > 100 | > 100 | > 100 | > 100 | – | > 100 | – | – | – | – | – | > 100 | – | – | – | – | –
9 | O=c1[nH]c2nc3ccccc3c(=O)n2nc1Cc1ccccc1 | > 100 | > 100 | – | – | > 100 | > 100 | > 100 | – | > 100 | – | – | – | – | – | > 100 | – | – | – | – | –
10 | COc1ccccc1/C=C1\C(=O)N(C(=O)Cc2ccccc2)N=C1C | > 100 | > 100 | – | > 100 | > 100 | > 100 | > 100 | – | – | – | – | – | – | – | > 100 | – | – | – | – | –
11 | COCN1COCN(C)C1=O | > 100 | > 100 | – | – | > 100 | > 100 | > 100 | – | > 100 | – | – | – | – | – | – | – | – | – | – | –
12 | O=C(NCCCN1CCN(CCCNC(=O)c2cccc3ccccc23)CC1)c1cccc2ccccc12 | > 100 | > 100 | – | > 100 | > 100 | > 100 | > 100 | – | > 100 | – | – | – | – | – | > 100 | – | – | – | – | –
13 | S=C1SCC2CCCN12 (configuration not stated) | > 100 | > 100 | – | > 100 | > 100 | > 100 | > 100 | – | > 100 | – | – | – | – | – | > 100 | – | – | – | – | –
14 | O=C(c1ccccc1)c1nc2c(Cl)ccc(Cl)c2cc1C(Br)Br | 13.4 | 3.51 | – | – | 2.29 | 7.59 | 4.34 | – | 3.01 | – | – | – | – | – | 7.13 | – | – | – | – | –
15 | C=CCCC(O)c1cc(C)c(O)c(C)c1 (configuration not stated) | > 100 | – | – | > 100 | > 100 | > 100 | > 100 | – | > 100 | – | – | – | – | – | > 100 | – | – | – | – | –
16 | CC(=O)OC1(Sc2ccccc2)CC2[C@H]3COC(C)(C)O[C@H]3CC[C@@]2(C)CC1=O (some centres not stated) | > 100 | > 100 | – | – | > 100 | > 100 | > 100 | – | > 100 | – | – | – | – | – | > 100 | – | – | – | – | –
17 | CC1=CC(=O)NP(=O)(Oc2ccc(Cl)cc2)N1 (configuration not stated) | > 100 | > 100 | – | > 100 | > 100 | > 100 | > 100 | – | > 100 | – | – | – | – | – | > 100 | – | – | – | – | –
18 | CN(c1cccc(C(=O)O)c1)c1cc(O/N=[N+](\[O-])N(C)C)c([N+](=O)[O-])cc1[N+](=O)[O-] | > 100 | > 100 | > 100 | > 100 | > 100 | > 100 | > 100 | – | > 100 | > 100 | > 100 | > 100 | 72.2 | > 100 | > 100 | > 100 | > 100 | – | > 100 | > 100
19 | Nc1[nH]nc(Nc2ccccc2)c1-c1nc2ccccc2s1 | 11.9 | – | 11.6 | 7 | 8.77 | 5.98 | 8.9 | 11.2 | 2.96 | 2.96 | – | 3.02 | 2.61 | 0.683 | 7.81 | 2.26 | 2.36 | 2.2 | 1.4 | 2.77
20 | N#CN1CC[C@@H]2CC3(CCC2C1)OCCO3 (some centres not stated) | > 100 | > 100 | – | > 100 | > 100 | > 100 | > 100 | – | > 100 | – | – | – | – | – | > 100 | – | – | – | – | –
